Laboratory results reported in US4076705A, “Dipeptide derivatives and their production” (Shionogi & Co., Ltd., priority 1974, dated 1978).

What was measured:
Type in all cases: in vivo
DS male mice [1] = assay: Taming activity; settings: for Taming activity ED50: given 60 minutes prior, inhibition of fighting responses to 5 Hz square wave pulse, 5 pairs; for times more potent than diazepam, taming activity: versus diazepam (Compound No. 5)
Description: This test was measured on DS male mice. […] These pairs of mice were selected in the morning and used for drug test in the afternoon. The test compound was administered to both mice of the pairs 60 minutes prior to the experiment. Results were obtained as the mean percentage of inhibition of fighting responses in a group of 5 pairs and shown by ED50 [Tedeschi, et al.: J. Pharmacol Exp. Thev., 125, 28-34 (1959) ].

DS male mice [2] = assay: Anti-pentylenetetrazol activity; settings: for Anti-pentylenetetrazol activity, ED50: oral, 60 minutes prior to 125 mg/kg s.c. pentylenetetrazol, complete protection against mortality, observed two hours; for times more potent than diazepam, anti-pentylenetetrazol activity: versus diazepam (Compound No. 5)
Source text: 1. Anti-pentylenetetrazol activity
The convulsions were disregarded.

DS male mice [3] = assay: Rotarod performance activity; settings: fall from rod (five rotations per minute) within less than 2 minutes
Description: 3. Rotarod performance activity
This test was measured on DS male mice. The mouse was put on a scraped rod of wood, 3 cm in diameter, turning at the rate of five rotations per minute. The mice that could remain on the rod for three or more minutes in successive trials were selected and placed in a group of 10 mice for each dose. If the mouse fell down from the rod within less than 2 minutes, the test compound was considered to be effective. Results were shown by ED50 [Dunham, et al.: J. Am. Pharm. Assoc., 46, 208 (1959)].

[4] = versus chlordiazepoxide (Compound No. 4)

SMILES	Taming activity ED50 (DS male mice [1])	times more potent than diazepam, taming activity (DS male mice [1])	Anti-pentylenetetrazol activity, ED50 (DS male mice [2])	times more potent than diazepam, anti-pentylenetetrazol activity (DS male mice [2])	Rotarod performance ED50 (DS male mice [3])	times more potent than chlordiazepoxide, taming activity (DS male mice [1]; [4])	times more potent than chlordiazepoxide, anti-pentylenetetrazol activity (DS male mice [2]; [4])
CN(C(=O)CNC(=O)CN)c1ccc(Cl)cc1C(=O)c1ccccc1F.Cl [Compound No. 3, 2-o-fluorobenzoyl-4-chloro-N-methyl-N^α -glycyl-glycinanilide hydrochloride]	1.6 mg/kg	2 to 4 times	0.33 mg/kg	2 to 4 times	17.0 mg/kg		
CNC1=Nc2ccc(Cl)cc2C(c2ccccc2)=[N+]([O-])C1 [Compound No. 4, Chlordiazepoxide, reference compound]					50.0 mg/kg		
CN(C(=O)CNC(=O)CN)c1ccc(Cl)cc1C(=O)c1ccccc1 [Compound No. 1, 2-benzoyl-4-chloro-N-methyl-N^α -glycyl-glycinanilide]			1.0 mg/kg			2 to 3 times	2 to 3 times
CN(C(=O)CNC(=O)CN)c1ccc(Cl)cc1C(=O)c1ccccc1Cl.O [Compound No. 2, 2-o-chlorobenzoyl-4-chloro-N-methyl-N^α -glycyl-glycinanilide hydrate]	3.0 mg/kg	2 to 4 times	0.58 mg/kg	2 to 4 times			
